Results reported in patent US12291607B2, “Polymer material and method for producing same” (Osaka University, priority 2019, dated 2025).

Assay: Solubility of host (Ac-CDAA) and guest (ADAA) monomers in third polymerizable monomers
Format: physicochemical
Experimental: The phrase “the host group-containing polymerizable monomer and the guest group-containing polymerizable monomer are dissolved in the third polymerizable monomer” means that the mixture of the host group-containing polymerizable monomer and the guest group-containing polymerizable monomer in a total amount of 1 part by weight or more is dissolved per 100 parts by weight of the third polymerizable monomer at a temperature of 20° C. It is preferable that the mixture of the host group-containing polymerizable monomer and the guest group-containing polymerizable monomer in a total amount of 1 part by weight or more, and particularly preferably 10 parts by weight or more, is dissolved per 100 parts by weight of the third polymerizable monomer at a temperature of 20° C.
(§1) The solubility of Ac-CDAA (host group-containing polymerizable monomer) in the following various monomers (third polymerizable monomers) was as follows: • less than 1 g for 100 g of 2EHA (20° C.) • less than 1 g for 100 g of OctA (octyl acrylate) (20° C.) • 10 g or more for 100 g of 2MEA (20° C.) • 10 g or more for 100 g of 4HBA (20° C.) • 10 g or more for 100 g of DMAA (20° C.)
as §1, with “Further, the” for “The”, “ADAA (guest” for “Ac-CDAA (host”, “OctA” for “OctA (octyl acrylate)”

C=CC(=O)NC12CC3CC(CC(C3)C1)C2 [ADAA, N-(1-adamantyl) acrylamide]
solubility in 2EHA (for 100 g of 2EHA (20° C.)): less than 1 g
solubility in 2MEA (for 100 g of 2MEA (20° C.)): ≥ 10 g
solubility in 4HBA (for 100 g of 4HBA (20° C.)): ≥ 10 g
solubility in DMAA (for 100 g of DMAA (20° C.)): ≥ 10 g
solubility in OctA (for 100 g of OctA (octyl acrylate) (20° C.)): less than 1 g
